Legend:
[1] = tested on: 5-HT2C receptors; conditions: literature; cited from earlier work
[2] = biological target: T1, 5-HT2C receptors (Sus scrofa, UniProt K7GSR7); test: biochemical; format: binding, pig
T1 construct: pig cerebral plexus; from tissue; host or cells: pig cerebral plexus (own knowledge: choroid plexus)
T1 sequence (K7GSR7 1-457): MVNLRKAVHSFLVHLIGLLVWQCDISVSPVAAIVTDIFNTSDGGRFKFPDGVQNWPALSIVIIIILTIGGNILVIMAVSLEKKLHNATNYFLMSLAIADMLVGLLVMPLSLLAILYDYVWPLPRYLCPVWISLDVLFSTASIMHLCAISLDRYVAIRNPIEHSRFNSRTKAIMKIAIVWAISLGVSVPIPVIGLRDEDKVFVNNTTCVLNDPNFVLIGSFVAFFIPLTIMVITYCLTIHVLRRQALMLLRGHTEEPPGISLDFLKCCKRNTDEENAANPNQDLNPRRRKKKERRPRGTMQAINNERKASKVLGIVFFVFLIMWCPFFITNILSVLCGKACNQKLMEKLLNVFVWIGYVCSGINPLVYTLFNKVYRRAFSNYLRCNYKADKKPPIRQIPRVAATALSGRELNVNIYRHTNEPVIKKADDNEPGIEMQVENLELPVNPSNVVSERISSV
Protocol: (§1) Measurement of the in vitro affinity for the 5-HT2C and 5-HT2A receptors
(§2) The procedures described for the studies of the binding to the 5-HT2A and 5-HT2C receptors are exactly those described by H. Canton et al. (Eur. J. Pharmacol., 191, 93, 1990) and M. J. Millan et al. (J. Pharmacol. Exp. Ther., 262, 451-463, 1992). For 5-HT2A : rat frontal cortex/[^3 H]-ketanserin (1.0 nM). For 5-HT2C : pig […] plexus/[^3 H]-mesulergine (1.0 nM). The 50% inhibitory doses (ID50) are determined by regression analysis and the pKi values are calculated as follows: [formula] [L]=concentration of the Kd-Kd=dissociation constant Results

[3] = biological target: T2, 5-HT2A receptors (Rattus norvegicus, UniProt P14842); test: In vitro affinity for the 5-HT2A receptors, rat frontal cortex/[3H]-ketanserin (1.0 nM); format: binding
T2 construct: rat frontal cortex; from tissue; host or cells: rat frontal cortex
T2 sequence (P14842 whole entry): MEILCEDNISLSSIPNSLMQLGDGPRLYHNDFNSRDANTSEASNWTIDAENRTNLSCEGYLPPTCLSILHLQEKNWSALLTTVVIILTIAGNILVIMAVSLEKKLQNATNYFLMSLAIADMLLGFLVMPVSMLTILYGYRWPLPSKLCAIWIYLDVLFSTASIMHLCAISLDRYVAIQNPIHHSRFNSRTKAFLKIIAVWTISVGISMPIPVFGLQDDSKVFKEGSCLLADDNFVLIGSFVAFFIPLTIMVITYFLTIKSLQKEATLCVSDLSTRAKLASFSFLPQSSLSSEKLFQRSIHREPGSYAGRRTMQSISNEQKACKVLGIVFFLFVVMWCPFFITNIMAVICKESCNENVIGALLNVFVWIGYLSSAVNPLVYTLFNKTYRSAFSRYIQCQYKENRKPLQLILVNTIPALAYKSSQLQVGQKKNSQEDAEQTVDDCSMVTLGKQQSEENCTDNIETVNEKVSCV
Protocol: as §1, §2

[4] = tested on: 5-HT2A receptors; conditions: literature; cited from earlier work
[5] = tested on: patients; conditions: clinical results in patients, literature; cited from earlier work

Compound	action at 5-HT2C receptors [1]	affinity for the 5-HT2C receptors [2]	Ki ([2]; 5-HT2C Ki (nM), pig cerebral plexus, [3H]-mesulergine 1.0 nM, average of two to four determinations) [nM]	Ki ([2]; affinity for the 5-HT2C receptors, of the order of) [nM]	affinity for the 5-HT2A sites/receptors [3]	Ki ([3]; rat frontal cortex, [3H]-ketanserin 1.0 nM, average of two to four determinations) [nM]	action at 5-HT2A receptors [4]	anxiogenic properties and exacerbation of psychiatric states [5]
Cn1ccc2cc(NC(=O)Nc3cccnc3)ccc21 [SB 200,646, reference compound]	selective 5-HT2C antagonist	modest affinity	204	~200	weak affinity	1320		
COc1cccc([C@H](O)C2CCN(CCc3ccc(F)cc3)CC2)c1OC [MDL 100,907, reference compound]					very strong affinity		selective 5-HT2A antagonist	
Clc1cccc(N2CCNCC2)c1 [mCPP]	5-HT2C agonist						5-HT2A antagonist	pronounced anxiogenic properties and which exacerbates depressive, aggressive and psychotic states in patients

From patent US5723484A, “Benzopyran compounds as 5-HT2C receptor antagonists” (Adir et Compagnie, priority 1994, dated 1998)
